In patent publication US20080026996A1, “Selective Vpac2 Receptor Reptide Agonists” (ELI LILLY AND COMPANY, priority 2004, published 2008):
Where no end group is shown, it is not given here. [ ]: non-standard residue; d: D form. The star is where a group is joined. Orn = NCCC[C@H](N)C(=O)O; Hexanoyl = CCCCCC(=O)*; Aib = CC(C)(N)C(=O)O

Tests used:
human PAC1 = target: T1, human PAC1 (Homo sapiens, UniProt P41586); experiment: Filter binding assay, membranes of cells transiently transfected with human PAC1, 125I-labeled PACAP-27 tracer (Table 2); set-up: expressed in transfected cells; details: read-out: Human PAC1 Receptor Binding
T1 sequence (P41586 21-468): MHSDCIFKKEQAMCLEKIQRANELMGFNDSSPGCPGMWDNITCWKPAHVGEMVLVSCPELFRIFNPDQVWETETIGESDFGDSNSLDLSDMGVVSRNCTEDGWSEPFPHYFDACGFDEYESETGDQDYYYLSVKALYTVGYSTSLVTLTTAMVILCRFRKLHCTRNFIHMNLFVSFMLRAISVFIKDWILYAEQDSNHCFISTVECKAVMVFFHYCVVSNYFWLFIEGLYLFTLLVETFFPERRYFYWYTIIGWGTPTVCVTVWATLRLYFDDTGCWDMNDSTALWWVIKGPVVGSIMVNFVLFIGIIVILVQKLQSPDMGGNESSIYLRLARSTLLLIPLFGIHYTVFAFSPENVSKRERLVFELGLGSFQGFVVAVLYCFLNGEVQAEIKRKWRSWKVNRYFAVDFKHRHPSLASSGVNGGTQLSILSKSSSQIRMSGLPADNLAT
Method in brief: (§1)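 Radioligand displacement was measured with 2.5 μg membrane protein per well and roughly 40000 cpm of iodinated tracer. After a 1-hour incubation, bound and free label were separated on BSA-blocked glass-fibre filters and quantified by scintillation.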

human VPAC1 = target: T2, human VPAC1 (Homo sapiens, UniProt P32241); experiment: Filter binding assay, membranes of cells transiently transfected with human VPAC1, 125I-labeled VIP tracer (Table 2); set-up: expressed in transfected cells; details: read-out: Human VPAC1 Receptor Binding
T2 sequence (P32241 31-457): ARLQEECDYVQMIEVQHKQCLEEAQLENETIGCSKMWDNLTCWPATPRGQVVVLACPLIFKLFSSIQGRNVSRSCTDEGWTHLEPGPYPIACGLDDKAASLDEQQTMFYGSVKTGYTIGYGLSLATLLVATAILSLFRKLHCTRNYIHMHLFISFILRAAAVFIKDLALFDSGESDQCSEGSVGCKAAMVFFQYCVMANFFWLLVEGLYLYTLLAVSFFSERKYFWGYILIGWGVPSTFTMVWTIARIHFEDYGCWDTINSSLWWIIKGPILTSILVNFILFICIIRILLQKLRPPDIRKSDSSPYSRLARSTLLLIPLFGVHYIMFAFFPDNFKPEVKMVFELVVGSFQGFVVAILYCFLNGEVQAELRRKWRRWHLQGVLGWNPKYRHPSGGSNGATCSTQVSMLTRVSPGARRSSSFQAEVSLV
Method in brief: as §1

human VPAC2 [1] = target: T3, human VPAC2 (Homo sapiens, UniProt P41587); experiment: Alpha screen cAMP in vitro potency, human VPAC2 receptor; assay type: cell-based; details: cAMP generation; single result from two analyses performed in a single run; read-out: Human VPAC2 Receptor: Alpha Screen EC50
T3 construct: expressed in transfected cells
T3 sequence (P41587 24-438): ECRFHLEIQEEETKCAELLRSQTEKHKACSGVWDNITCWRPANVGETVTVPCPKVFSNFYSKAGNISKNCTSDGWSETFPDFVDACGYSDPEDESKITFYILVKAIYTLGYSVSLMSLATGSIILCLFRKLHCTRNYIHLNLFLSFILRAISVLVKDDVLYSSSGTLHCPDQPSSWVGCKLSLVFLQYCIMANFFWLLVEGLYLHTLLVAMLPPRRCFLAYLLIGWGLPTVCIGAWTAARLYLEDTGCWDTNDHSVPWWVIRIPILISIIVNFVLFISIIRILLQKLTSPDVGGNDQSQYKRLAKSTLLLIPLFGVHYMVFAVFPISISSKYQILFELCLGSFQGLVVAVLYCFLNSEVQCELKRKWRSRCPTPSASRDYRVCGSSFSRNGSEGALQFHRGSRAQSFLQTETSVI
Method in brief: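 Dissociated cells, 50,000 per point in stimulation buffer, were incubated with stimuli and AlphaScreen acceptor beads for 60 min.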

human VPAC2 [2] = target: T3, human VPAC2; experiment: Filter binding assay, membranes of stable VPAC2 cell line, 125I-labeled VIP tracer (Table 2); details: read-out: Human VPAC2 Receptor Binding
Method in brief: as §1

[3] = Rat serum stability studies (remaining active peptide by DiscoveRx cAMP on CHO-VPAC2 cells); assay type: in vitro ADME
Method in brief: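 EC50 from a DiscoveRx cAMP read-out on CHO-VPAC2 cells indexes how much peptide stays active after 18 h in rat serum at 37° C without aprotinin, against an aprotinin-protected 4° C aliquot.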

Substance | IC50 (human PAC1) [nM] | IC50 (human VPAC1) [nM] | EC50 (human VPAC2 [1]) [nM] | IC50 (human VPAC2 [2]) [nM] | Rat Serum Stability (estimated purity in % after 18 hours) [3] [%] | Rat Serum Stability (Estimated purity in % after 72 hours) [3] [%]
Hexanoyl-HSD[Aib]VFTDNYTRLRKQVAAKKYLQSIKNKRYGGPSSGAPPPS [Agonist P209] | 343 | 130 | 0.1 | 0.2 | 0.13 | –
Hexanoyl-HSDAVFTDNYTRLRAQVAAKKYLQSIKNKRYGGPSSGAPPPS [Agonist P139] | > 25000 | 235 | 0.2 | 0.34 | 0.33 | –
Hexanoyl-HSDAVFTDNYTRL[Aib]KQVAAQKYLQSIKNKRYGGPSSGAPPPS [Agonist P243] | > 25000 | > 3000 | 0.28 | 5.51 | 12.12 | –
Hexanoyl-HSDAVFTDNYTRLRK(Ac)QVAAK(Ac)KYLQSIKNKRYGGPSSGAPPPS [Agonist P193] | 542 | 250 | 0.18 | 0.37 | 0.25 | –
Hexanoyl-HSDAVFTDNYTRLRKQVALKKYLQSIKNKRYGGPSSGAPPPS [Agonist P155] | 148 | 231 | 0.24 | 0.71 | 0.25 | –
Hexanoyl-HSDAVFTDNYTRLRKQVAATKYLQSIKNKRYGGPSSGAPPPS [Agonist P152] | 672 | 514 | 0.17 | 0.37 | 0.06 | –
Hexanoyl-HSDAVFTDNYTRLR[Orn]QVAAKKYLQSIKNKRYGGPSSGAPPPS [Agonist P307] | 293 | 274 | 0.32 | 0.28 | 0.32 | –
Hexanoyl-HSDAVFTDNYTRLQKQVAAKQYLQSIKNKRYGGPSSGAPPPS [Agonist P253] | > 25000 | 2160 | 0.46 | 1.78 | 1.27 | –
Hexanoyl-HSDAVFTDNYTRLRKQVAAIKYLQSIKNKRYGGPSSGAPPPS [Agonist P149] | 773 | 212 | 0.41 | 0.61 | 0.29 | –
Hexanoyl-HSDAVFTDNYTRLAKQVAAKKYLQSIKNKRYGGPSSGAPPPS [Agonist P173] | 756 | 1790 | 0.25 | 0.55 | 1.04 | –
Hexanoyl-HSDAVFTDNYTRLRKQVAAVKYLQSIKNKRYGGPSSGAPPPS [Agonist P146] | 1540 | 401 | 0.17 | 0.52 | 0.53 | –
Hexanoyl-HSDAVFTDNYTRL[Orn][Aib]QVAA[Aib]KYLQSIKNKRYGGPSSGAPPPS [Agonist P319] | > 25000 | > 3000 | 0.26 | 0.69 | 13.53 | –
Hexanoyl-HSDAVFTEEYTRLQKQVAAKQYLQSIKNKRYGGPSSGAPPPS [Agonist P165] | 2860 | 486 | 0.94 | 18.4 | 7.28 | –
Hexanoyl-HSDAVFTDNYTRLR[Aib]QVAAVKYLQSIKNKRYGGPSSGAPPPS [Agonist P262] | > 25000 | > 3000 | 0.24 | 0.61 | 10.14 | –
Hexanoyl-HSDAVFTDNYTRL[Aib]KQLAA[Aib]KYLQSIKNKRYGGPSSGAPPPS [Agonist P240] | > 25000 | > 3000 | 0.51 | 6.08 | 43.87 | 10.4
Hexanoyl-HSDAVFTDNYTRLLKQVAAKKYLQSIKNKRYGGPSSGAPPPS [Agonist P174] | 621 | 302 | 0.26 | 55.1 | 1.91 | –
